From patent US20090105270A1, “Kinase inhibition and anticancer therapy” (priority 2007, published 2009)

Legend:
Axl(h) = target: T1, Axl(h) (Homo sapiens, UniProt P30530); assay: Upstate kinase activity inhibition assay Axl(h); format: biochemical; conditions: 40 min; read-out: percentage of enzyme activity that remains
T1 construct: purchased Upstate (KinaseProfiler service)

CDK7/cyclinH/MAT1(h) = target: T2, CDK7/cyclinH/MAT1(h) (Homo sapiens, UniProt P50613); assay: Upstate kinase activity inhibition assay CDK7/cyclinH/MAT1(h); format: biochemical; conditions: 40 min, read-out: percentage of enzyme activity that remains
T2 construct: purchased Upstate (KinaseProfiler service)

EGFR(L858R)(h) = target: T3, EGFR(L858R)(h) (Homo sapiens, UniProt P00533, L858R); assay: Upstate kinase activity inhibition assay EGFR(L858R)(h); format: biochemical; conditions: 4 μM Compound E
T3 construct: purchased Upstate (KinaseProfiler service)

EphA8(h) = target: T4, EphA8(h) (Homo sapiens, UniProt P29322); assay: Upstate kinase activity inhibition assay EphA8(h); format: biochemical; conditions: 40 min; read-out: percentage of enzyme activity that remains
T4 construct: purchased Upstate (KinaseProfiler service)

Hck(h) = target: T5, Hck(h) (Homo sapiens, UniProt P08631); assay: Upstate kinase activity inhibition assay Hck(h); format: biochemical; conditions: 40 min; read-out: percentage of enzyme activity that remains
T5 construct: purchased Upstate (KinaseProfiler service)
T5 sequence (P08631 whole entry): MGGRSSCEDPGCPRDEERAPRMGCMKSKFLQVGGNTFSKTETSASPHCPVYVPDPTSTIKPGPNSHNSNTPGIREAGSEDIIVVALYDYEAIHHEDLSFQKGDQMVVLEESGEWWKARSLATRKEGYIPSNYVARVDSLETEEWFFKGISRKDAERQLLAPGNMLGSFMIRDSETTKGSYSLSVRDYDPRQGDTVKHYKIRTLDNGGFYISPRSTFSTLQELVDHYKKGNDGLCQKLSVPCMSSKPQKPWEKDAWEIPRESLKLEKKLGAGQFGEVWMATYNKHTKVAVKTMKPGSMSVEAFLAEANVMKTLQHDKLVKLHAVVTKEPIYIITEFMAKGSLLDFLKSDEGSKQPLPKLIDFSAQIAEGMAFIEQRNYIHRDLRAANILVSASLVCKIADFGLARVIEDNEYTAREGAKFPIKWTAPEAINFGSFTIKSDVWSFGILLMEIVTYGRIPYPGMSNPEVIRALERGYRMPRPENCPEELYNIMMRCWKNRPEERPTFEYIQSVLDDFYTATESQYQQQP

p70S6K(h) = target: T6, p70S6K(h) (Homo sapiens, UniProt P23443); assay: Upstate kinase activity inhibition assay p70S6K(h); format: biochemical; conditions: 40 min; read-out: percentage of enzyme activity that remains
T6 construct: purchased Upstate (KinaseProfiler service)

PASK(h) = target: T7, PASK(h) (Homo sapiens, UniProt Q96RG2); assay: Upstate kinase activity inhibition assay PASK(h); format: biochemical; conditions: 40 min; read-out: percentage of enzyme activity that remains
T7 construct: purchased Upstate (KinaseProfiler service)

PKCγ(h) = target: T8, PKCγ(h) (Homo sapiens, UniProt P05129); assay: Upstate kinase activity inhibition assay PKCγ(h); format: biochemical; conditions: 40 min; read-out: percentage of enzyme activity that remains
T8 construct: purchased Upstate (KinaseProfiler service)

PTK5(h) = target: T9, PTK5(h) (Homo sapiens, UniProt P42685); assay: Upstate kinase activity inhibition assay PTK5(h); format: biochemical; conditions: 40 min; read-out: percentage of enzyme activity that remains
T9 construct: purchased Upstate (KinaseProfiler service)

WNK2(h) = target: T10, WNK2(h) (Homo sapiens, UniProt Q9Y3S1); assay: Upstate kinase activity inhibition assay WNK2(h); format: biochemical; conditions: 40 min; read-out: percentage of enzyme activity that remains
T10 construct: purchased Upstate (KinaseProfiler service)

BRK(h) = BRK(h) (Homo sapiens, UniProt Q13882); assay: Upstate kinase activity inhibition assay BRK(h); conditions: 40 min, read-out: percentage of enzyme activity that remains
ALK4(h) = ALK4(h) (Homo sapiens, UniProt P36896); assay: Upstate kinase activity inhibition assay ALK4(h); conditions: 40 min, read-out: percentage of enzyme activity that remains
Syk(h) = Syk(h) (Homo sapiens, UniProt P43405); assay: Upstate kinase activity inhibition assay Syk(h)
MLK1(h) = MLK1(h) (Homo sapiens, UniProt P80192); assay: Upstate kinase activity inhibition assay MLK1(h); conditions: 40 min, read-out: percentage of enzyme activity that remains
MSK2(h) = MSK2(h) (Homo sapiens, UniProt O75676); assay: Upstate kinase activity inhibition assay MSK2(h); conditions: 40 min, read-out: percentage of enzyme activity that remains
NEK2(h) = NEK2(h) (Homo sapiens, UniProt P51955); assay: Upstate kinase activity inhibition assay NEK2(h); conditions: 40 min, read-out: percentage of enzyme activity that remains
PAK5(h) = PAK5(h) (Homo sapiens, UniProt Q9P286); assay: Upstate kinase activity inhibition assay PAK5(h); conditions: 40 min, read-out: percentage of enzyme activity that remains
PKCα(h) = PKCα(h) (Homo sapiens, UniProt P17252); assay: Upstate kinase activity inhibition assay PKCα(h); conditions: 40 min, read-out: percentage of enzyme activity that remains
PKCθ(h) = PKCθ(h) (Homo sapiens, UniProt Q04759); assay: Upstate kinase activity inhibition assay PKCθ(h); conditions: 40 min, read-out: percentage of enzyme activity that remains
PKCζ(h) = PKCζ(h) (Homo sapiens, UniProt Q05513); assay: Upstate kinase activity inhibition assay PKCζ(h); conditions: 40 min, read-out: percentage of enzyme activity that remains
PKCζ(h), sequence (Q05513 whole entry): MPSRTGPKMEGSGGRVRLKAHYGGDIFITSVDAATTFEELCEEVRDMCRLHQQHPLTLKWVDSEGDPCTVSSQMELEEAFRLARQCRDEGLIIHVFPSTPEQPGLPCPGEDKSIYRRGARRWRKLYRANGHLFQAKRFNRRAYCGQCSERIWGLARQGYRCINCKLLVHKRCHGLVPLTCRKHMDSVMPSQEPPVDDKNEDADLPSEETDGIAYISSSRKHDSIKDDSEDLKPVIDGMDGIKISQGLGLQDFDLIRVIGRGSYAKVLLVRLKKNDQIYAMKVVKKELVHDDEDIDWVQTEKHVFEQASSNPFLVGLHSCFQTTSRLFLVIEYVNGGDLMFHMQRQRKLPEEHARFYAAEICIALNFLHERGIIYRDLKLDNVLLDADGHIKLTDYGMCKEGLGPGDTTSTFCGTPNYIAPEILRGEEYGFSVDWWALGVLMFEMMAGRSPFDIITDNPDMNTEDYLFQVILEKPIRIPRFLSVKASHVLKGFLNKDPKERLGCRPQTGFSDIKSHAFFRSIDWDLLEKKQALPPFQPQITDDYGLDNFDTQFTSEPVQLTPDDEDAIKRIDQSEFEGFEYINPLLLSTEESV

TBK1(h) = TBK1(h) (Homo sapiens, UniProt Q9UHD2); assay: Upstate kinase activity inhibition assay TBK1(h); conditions: 40 min, read-out: percentage of enzyme activity that remains
DAPK1(h) = DAPK1(h) (Homo sapiens, UniProt P53355); assay: Upstate kinase activity inhibition assay DAPK1(h); conditions: 40 min, read-out: percentage of enzyme activity that remains
HIPK1(h) = HIPK1(h) (Homo sapiens, UniProt Q86Z02); assay: Upstate kinase activity inhibition assay HIPK1(h); conditions: 40 min, read-out: percentage of enzyme activity that remains
HIPK1(h), sequence (Q86Z02 whole entry): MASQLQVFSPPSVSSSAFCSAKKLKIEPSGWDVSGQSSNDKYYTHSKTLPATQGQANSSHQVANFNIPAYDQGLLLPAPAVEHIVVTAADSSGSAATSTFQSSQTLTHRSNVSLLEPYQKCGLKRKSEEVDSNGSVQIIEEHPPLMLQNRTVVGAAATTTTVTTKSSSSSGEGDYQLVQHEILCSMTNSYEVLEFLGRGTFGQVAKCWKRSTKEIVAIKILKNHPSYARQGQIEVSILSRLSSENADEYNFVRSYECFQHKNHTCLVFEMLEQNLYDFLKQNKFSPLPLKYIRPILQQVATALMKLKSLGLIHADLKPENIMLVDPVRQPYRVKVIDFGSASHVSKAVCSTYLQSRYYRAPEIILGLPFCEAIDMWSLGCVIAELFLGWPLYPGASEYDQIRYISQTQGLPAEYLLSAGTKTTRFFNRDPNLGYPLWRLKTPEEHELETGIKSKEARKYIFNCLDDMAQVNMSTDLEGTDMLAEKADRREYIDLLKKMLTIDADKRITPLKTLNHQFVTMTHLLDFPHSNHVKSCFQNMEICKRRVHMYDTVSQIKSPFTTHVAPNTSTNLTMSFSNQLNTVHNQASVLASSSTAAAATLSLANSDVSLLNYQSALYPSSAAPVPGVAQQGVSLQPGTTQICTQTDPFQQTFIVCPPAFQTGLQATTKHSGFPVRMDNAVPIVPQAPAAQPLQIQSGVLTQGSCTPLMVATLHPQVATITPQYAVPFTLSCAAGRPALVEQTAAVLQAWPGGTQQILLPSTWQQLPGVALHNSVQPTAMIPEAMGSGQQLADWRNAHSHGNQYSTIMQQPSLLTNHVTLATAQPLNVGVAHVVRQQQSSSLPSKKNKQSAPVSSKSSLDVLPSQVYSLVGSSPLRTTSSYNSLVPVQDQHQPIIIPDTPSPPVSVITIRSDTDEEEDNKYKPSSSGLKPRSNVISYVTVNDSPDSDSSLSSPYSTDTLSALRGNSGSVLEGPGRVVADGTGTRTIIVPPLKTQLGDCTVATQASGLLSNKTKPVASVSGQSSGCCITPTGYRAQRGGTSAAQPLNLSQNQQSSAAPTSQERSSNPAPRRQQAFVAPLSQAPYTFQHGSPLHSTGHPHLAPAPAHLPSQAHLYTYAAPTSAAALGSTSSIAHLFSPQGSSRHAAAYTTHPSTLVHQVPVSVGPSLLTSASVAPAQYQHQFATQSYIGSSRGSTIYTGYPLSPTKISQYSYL

MAPK1(h) = MAPK1(h) (Homo sapiens, UniProt P27361); assay: Upstate kinase activity inhibition assay MAPK1(h); conditions: 40 min, read-out: percentage of enzyme activity that remains
MRCKα(h) = MRCKα(h) (Homo sapiens, UniProt Q5VT25); assay: Upstate kinase activity inhibition assay MRCKα(h); conditions: 40 min, read-out: percentage of enzyme activity that remains
RIPK2(h) = RIPK2(h) (Homo sapiens, UniProt O43353); assay: Upstate kinase activity inhibition assay RIPK2(h); conditions: 40 min, read-out: percentage of enzyme activity that remains
IGF-1R(h) = IGF-1R(h) (Homo sapiens, UniProt P08069); assay: Upstate kinase activity inhibition assay IGF-1R(h); conditions: 40 min, read-out: percentage of enzyme activity that remains
IGF-1R(h), sequence (P08069 31-1367): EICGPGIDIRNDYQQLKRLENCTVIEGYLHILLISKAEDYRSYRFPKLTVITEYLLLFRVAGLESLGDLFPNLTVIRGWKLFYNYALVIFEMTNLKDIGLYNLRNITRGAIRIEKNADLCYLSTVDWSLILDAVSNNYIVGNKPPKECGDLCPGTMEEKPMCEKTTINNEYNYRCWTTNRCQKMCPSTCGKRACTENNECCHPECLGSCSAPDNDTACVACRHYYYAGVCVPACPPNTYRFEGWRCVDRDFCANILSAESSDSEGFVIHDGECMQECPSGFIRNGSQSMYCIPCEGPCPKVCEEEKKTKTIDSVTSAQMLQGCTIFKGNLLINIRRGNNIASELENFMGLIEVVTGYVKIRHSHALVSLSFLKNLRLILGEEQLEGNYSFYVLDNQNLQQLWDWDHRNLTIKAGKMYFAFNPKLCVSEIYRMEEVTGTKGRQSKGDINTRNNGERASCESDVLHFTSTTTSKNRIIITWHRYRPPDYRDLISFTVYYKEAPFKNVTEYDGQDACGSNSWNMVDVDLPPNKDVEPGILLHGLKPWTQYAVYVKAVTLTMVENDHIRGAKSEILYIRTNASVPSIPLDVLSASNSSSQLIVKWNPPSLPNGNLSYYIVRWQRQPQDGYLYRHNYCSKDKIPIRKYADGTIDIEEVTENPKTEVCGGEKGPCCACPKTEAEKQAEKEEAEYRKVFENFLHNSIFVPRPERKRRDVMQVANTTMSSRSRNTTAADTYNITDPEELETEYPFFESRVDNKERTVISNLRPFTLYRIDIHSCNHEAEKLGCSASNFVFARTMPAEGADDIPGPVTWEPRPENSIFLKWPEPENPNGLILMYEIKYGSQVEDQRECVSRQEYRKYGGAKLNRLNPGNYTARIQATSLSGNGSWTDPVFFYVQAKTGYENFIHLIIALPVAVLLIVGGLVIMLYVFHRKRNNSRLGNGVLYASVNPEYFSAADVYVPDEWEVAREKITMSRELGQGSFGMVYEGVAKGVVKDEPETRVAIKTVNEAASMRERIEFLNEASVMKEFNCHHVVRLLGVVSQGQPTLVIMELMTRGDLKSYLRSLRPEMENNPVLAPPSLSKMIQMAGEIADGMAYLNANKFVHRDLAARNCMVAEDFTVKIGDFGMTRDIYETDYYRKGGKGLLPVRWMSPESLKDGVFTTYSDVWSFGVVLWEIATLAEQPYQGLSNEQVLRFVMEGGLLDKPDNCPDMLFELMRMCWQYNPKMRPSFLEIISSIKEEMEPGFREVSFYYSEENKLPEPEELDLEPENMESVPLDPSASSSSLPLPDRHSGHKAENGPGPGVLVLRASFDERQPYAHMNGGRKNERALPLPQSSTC

ROCK-I(h) = ROCK-I(h) (Homo sapiens, UniProt Q13464); assay: Upstate kinase activity inhibition assay ROCK-I(h); conditions: 40 min, read-out: percentage of enzyme activity that remains
Flt3(D835Y)(h) = Flt3(D835Y)(h) (Homo sapiens, UniProt P36888, D835Y); assay: Upstate kinase activity inhibition assay Flt3(D835Y)(h); conditions: 40 min, read-out: percentage of enzyme activity that remains

## Cc1cc(Nc2cc(N3CCN(C)CC3)nc(Sc3ccc(NC(=O)C4CC4)cc3)n2)n[nH]1 [Compound E, Cyclopropane carboxylic acid {4-[4-(4-methyl-piperazin-1-yl)-6-(5-methyl-2H-pyrazol-3-ylamino)-pyrimidin-2-ylsulphanyl]-phenyl}-amide]
Axl(h)
  remaining activity at 0.2 µM: 79%
  remaining activity at 4 µM: 19%
CDK7/cyclinH/MAT1(h)
  remaining activity at 0.2 µM: 113%
  remaining activity at 4 µM: 94%
EGFR(L858R)(h)
  percentage of enzyme activity that remains: 77%
EphA8(h)
  remaining activity at 0.2 µM: 92%
Hck(h)
  remaining activity at 0.2 µM: 98%
  remaining activity at 4 µM: 45%
p70S6K(h)
  remaining activity at 4 µM: 92%
PASK(h)
  remaining activity at 0.2 µM: 98%
PKCγ(h)
  remaining activity at 0.2 µM: 96%
  remaining activity at 4 µM: 82%
PTK5(h)
  remaining activity at 0.2 µM: 97%
  remaining activity at 4 µM: 54%
WNK2(h)
  remaining activity at 0.2 µM: 107%
  remaining activity at 4 µM: 90%
BRK(h)
  remaining activity at 0.2 µM: 102%
  remaining activity at 4 µM: 83%
ALK4(h)
  remaining activity at 0.2 µM: 103%
  remaining activity at 4 µM: 124%
Syk(h); 0.2 μM Compound E
  percentage of enzyme activity that remains: 113%
Syk(h); 4 μM Compound E
  percentage of enzyme activity that remains: 63%
MLK1(h)
  remaining activity at 0.2 µM: 54%
  remaining activity at 4 µM: 9%
MSK2(h)
  remaining activity at 0.2 µM: 117%
  remaining activity at 4 µM: 97%
NEK2(h)
  remaining activity at 0.2 µM: 112%
  remaining activity at 4 µM: 109%
PAK5(h)
  remaining activity at 0.2 µM: 93%
  remaining activity at 4 µM: 68%
PKCα(h)
  remaining activity at 0.2 µM: 115%
  remaining activity at 4 µM: 105%
PKCθ(h)
  remaining activity at 0.2 µM: 25%
  remaining activity at 4 µM: 35%
PKCζ(h)
  remaining activity at 0.2 µM: 107%
  remaining activity at 4 µM: 97%
TBK1(h)
  remaining activity at 0.2 µM: 106%
  remaining activity at 4 µM: 57%
DAPK1(h)
  remaining activity at 0.2 µM: 107%
  remaining activity at 4 µM: 100%
HIPK1(h)
  remaining activity at 0.2 µM: 100%
  remaining activity at 4 µM: 100%
MAPK1(h)
  remaining activity at 0.2 µM: 94%
  remaining activity at 4 µM: 93%
MRCKα(h)
  remaining activity at 0.2 µM: 96%
  remaining activity at 4 µM: 99%
RIPK2(h)
  remaining activity at 0.2 µM: 107%
  remaining activity at 4 µM: 105%
IGF-1R(h)
  remaining activity at 0.2 µM: 76%
  remaining activity at 4 µM: 26%
ROCK-I(h)
  remaining activity at 0.2 µM: 99%
  remaining activity at 4 µM: 91%
Flt3(D835Y)(h)
  remaining activity at 0.2 µM: 50%
  remaining activity at 4 µM: 7%
